Reference: patent US8013137B2, “Modified enteropeptidase protein” (National University Corporation Hokkaido University, priority 2006, dated 2011)
Where two headings read alike, the source gives them in different places. One block for each molecule: values may come before it. Non-standard residues stand in square brackets, D forms with d. Residues, ends and D or L forms follow the SMILES beside them. *: point of attachment. Sta = CC(C)C[C@H](N)[C@@H](O)CC(=O)O; Isovaleryl = CC(C)CC(=O)*

Assays:
medaka EP-1 protease = assay: Inhibitor assay, enzyme activity measured using GD4K-βNA as a substrate; assay type: biochemical, medaka (Oryzias latipes)
medaka EP-2 protease = assay: as above; assay type: biochemical, medaka (Oryzias latipes)
[1] = molecular target: medaka EP-2 enteropeptidase serine protease domain, wild type (EP-2, SEQ ID NO: 72) (Oryzias latipes, UniProt A4UWM6); assay: Inhibitor assay, EP-2 protease activity on GD4K-βNA; assay type: biochemical, Japanese Medaka (Oryzias latipes); conditions: pH 7.4
Chain of medaka EP-2 enteropeptidase serine protease domain, wild type (EP-2, SEQ ID NO: 72) (A4UWM6 802-1043): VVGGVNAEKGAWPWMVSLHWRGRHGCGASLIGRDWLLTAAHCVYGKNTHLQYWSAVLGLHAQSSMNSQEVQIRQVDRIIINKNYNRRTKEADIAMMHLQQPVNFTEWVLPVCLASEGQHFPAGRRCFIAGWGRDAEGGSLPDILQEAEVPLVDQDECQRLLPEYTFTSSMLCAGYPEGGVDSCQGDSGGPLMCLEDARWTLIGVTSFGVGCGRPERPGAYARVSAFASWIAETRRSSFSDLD

[2] = molecular target: T1, medaka EP-1 enteropeptidase serine protease domain, wild type, SEQ ID NO: 2 (Oryzias latipes, UniProt A4UWM5); assay: Inhibitor assay, EP-1 protease activity on GD4K-βNA; assay type: biochemical, Japanese Medaka (Oryzias latipes); conditions: pH 7.4
T1 sequence (A4UWM5 795-1036): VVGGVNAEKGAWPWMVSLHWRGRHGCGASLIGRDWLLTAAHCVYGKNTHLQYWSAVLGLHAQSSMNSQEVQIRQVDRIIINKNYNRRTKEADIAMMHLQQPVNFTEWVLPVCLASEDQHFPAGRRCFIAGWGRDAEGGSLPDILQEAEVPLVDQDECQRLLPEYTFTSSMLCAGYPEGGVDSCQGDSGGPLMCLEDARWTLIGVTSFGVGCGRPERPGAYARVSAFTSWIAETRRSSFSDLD

[3] = inhibitor 1.0 mM, GD4K-βNA substrate, 10 min preincubation
[4] = 0.2 mM inhibitor, GD4K-βNA substrate, 10 min preincubation
[5] = inhibitor 0.1 mM, GD4K-βNA substrate, 10 min preincubation
[6] = inhibitor 0.01 mg/ml, GD4K-βNA substrate, 10 min preincubation

Molecule: CC(C)C[C@H](NC(=O)[C@@H](NC(=O)N[C@@H](Cc1ccccc1)C(=O)O)[C@@H]1CCN=C(N)N1)C(=O)N[C@H](C=O)Cc1ccccc1 [Chymostatin]
Inhibition (%) EP-1 (medaka EP-1 protease): 0% | Inhibition (%) EP-2 (medaka EP-2 protease): 0%

Molecule: O=C(O)CN(CCN(CC(=O)O)CC(=O)O)CC(=O)O [EDTA]
inhibition at 5000 µM [1]: 10% | inhibition at 5000 µM [2]: 5%

Molecule: CC(=O)N[C@@H](CC(C)C)C(=O)N[C@@H](CC(C)C)C(=O)N[C@H](C=O)CCCNC(=N)N [Leupeptin]
Inhibition (%) EP-1 (medaka EP-1 protease): 43% | Inhibition (%) EP-2 (medaka EP-2 protease): 47%

Molecule: Aprotinin
Inhibition (%) EP-1 (medaka EP-1 protease; [6]): 0% | Inhibition (%) EP-2 (medaka EP-2 protease; [6]): 5%

The next lines start with the values.

Inhibition (%) EP-1 (medaka EP-1 protease; [3]): 79% | Inhibition (%) EP-2 (medaka EP-2 protease; [3]): 78%
Molecule: N=C(N)c1ccccc1 [Benzamidine]

inhibition at 200 µM [1, 4]: 0% | inhibition at 200 µM [2, 4]: 0%
Molecule: CC(C)C[C@H](NC(=O)[C@H]1O[C@@H]1C(=O)O)C(=O)NCCCCN=C(N)N [E-64]

Inhibition (%) EP-1 (medaka EP-1 protease; [5]): 0% | Inhibition (%) EP-2 (medaka EP-2 protease; [5]): 3%
Molecule: CC(C)CC(=O)N[C@H](C(=O)N[C@H](C(=O)N[C@@H](CC(C)C)[C@@H](O)CC(=O)N[C@@H](C)C(=O)N[C@@H](CC(C)C)[C@@H](O)CC(=O)O)C(C)C)C(C)C [Pepstatin] (Isovaleryl-VV[Sta]A[Sta]-OH)
